Our source for the Emax and DC50 values is patent US20230002367A1, “BIFUNCTIONAL COMPOUNDS” (Hoffmann-La Roche Inc., priority 2019, published 2023).

Molecules are shown by their SMILES. Like-named read-outs stand apart in the source and are kept apart here.

The target in the assay is T1, SMARCA2 (Homo sapiens, UniProt P51531).
T1 construct: endogenous in cells
In words: SMARCA2 HiBiT degradation assay (cellular). The class given is cell-based. Conditions: for DC50: read-out: HiBit A549 SMARCA2 IP. For orientation: The HiBiT peptide binds its large partner to form an active luciferase.

[1] abbreviates: A549, different HIBIT SMARCA2 clone (footnote a), residual protein remaining.
Setting [2] is: different HIBIT SMARCA2 clone (footnote a).
Where [3] appears, read: A549, Emax = amount of residual protein remaining in the cell following compound treatment.
Setting [4] is: SMARCA2 HiBiT cells, luminescence readout, 11-point titration from 10 μM, 6 hours or 16 hours.

T1 sequence (P51531 whole entry): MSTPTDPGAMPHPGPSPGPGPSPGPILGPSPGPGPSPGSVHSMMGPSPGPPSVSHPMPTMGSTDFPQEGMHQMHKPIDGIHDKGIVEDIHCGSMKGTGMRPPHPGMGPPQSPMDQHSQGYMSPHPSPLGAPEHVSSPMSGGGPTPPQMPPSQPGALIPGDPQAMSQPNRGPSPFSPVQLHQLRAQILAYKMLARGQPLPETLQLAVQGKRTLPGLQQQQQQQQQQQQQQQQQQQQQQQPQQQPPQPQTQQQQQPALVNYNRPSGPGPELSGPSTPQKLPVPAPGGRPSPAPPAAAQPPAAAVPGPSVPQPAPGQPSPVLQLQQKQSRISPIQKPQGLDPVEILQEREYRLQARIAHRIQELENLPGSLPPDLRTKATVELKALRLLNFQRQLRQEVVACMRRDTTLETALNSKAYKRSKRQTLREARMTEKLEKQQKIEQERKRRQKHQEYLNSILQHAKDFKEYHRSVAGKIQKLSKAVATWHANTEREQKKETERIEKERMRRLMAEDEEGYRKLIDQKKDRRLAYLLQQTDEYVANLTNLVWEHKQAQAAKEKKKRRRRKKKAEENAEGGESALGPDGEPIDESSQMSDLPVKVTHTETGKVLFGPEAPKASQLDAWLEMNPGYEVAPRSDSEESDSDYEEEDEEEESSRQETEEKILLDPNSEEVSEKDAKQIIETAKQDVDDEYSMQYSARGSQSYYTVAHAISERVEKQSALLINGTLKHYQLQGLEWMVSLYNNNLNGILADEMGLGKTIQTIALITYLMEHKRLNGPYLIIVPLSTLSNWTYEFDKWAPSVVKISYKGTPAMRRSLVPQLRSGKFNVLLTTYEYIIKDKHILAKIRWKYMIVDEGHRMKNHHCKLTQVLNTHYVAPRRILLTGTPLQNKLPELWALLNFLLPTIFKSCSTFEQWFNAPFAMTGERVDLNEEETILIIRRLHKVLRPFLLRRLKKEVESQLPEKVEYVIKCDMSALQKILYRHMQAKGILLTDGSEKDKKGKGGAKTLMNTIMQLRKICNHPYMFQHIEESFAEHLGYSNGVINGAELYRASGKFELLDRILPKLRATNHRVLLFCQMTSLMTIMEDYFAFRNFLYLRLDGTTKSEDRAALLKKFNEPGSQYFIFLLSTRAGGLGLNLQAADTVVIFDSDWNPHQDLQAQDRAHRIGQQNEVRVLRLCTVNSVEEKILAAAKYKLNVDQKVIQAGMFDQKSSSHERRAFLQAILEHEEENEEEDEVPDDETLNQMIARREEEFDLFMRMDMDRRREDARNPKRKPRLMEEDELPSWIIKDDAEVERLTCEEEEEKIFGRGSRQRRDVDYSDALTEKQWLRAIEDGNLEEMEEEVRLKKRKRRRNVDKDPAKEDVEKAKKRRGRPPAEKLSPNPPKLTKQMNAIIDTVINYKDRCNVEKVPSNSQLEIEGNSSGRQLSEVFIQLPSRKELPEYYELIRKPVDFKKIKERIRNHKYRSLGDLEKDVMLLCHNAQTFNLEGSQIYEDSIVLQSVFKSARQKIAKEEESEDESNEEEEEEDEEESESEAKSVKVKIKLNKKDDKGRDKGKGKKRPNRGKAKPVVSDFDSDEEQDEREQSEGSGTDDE

On to `Cc1ncsc1-c1ccc(CNC(=O)[C@@H]2C[C@@H](O)CN2C(=O)[C@@H](NC(=O)CCCCCCCCC(=O)N2CCN(c3ccc(N4CCCC(Oc5cc(-c6cc(F)ccc6O)nnc5N)C4)cc3)CC2)C(C)(C)C)cc1` (mixture of isomers) [Example 108, rac-(2S,4R)-4-hydroxy-N-[[4-(4-methylthiazol-5-yl)phenyl]methyl]-1-[rac-(2S)-2-[[10-[4-[4-[3-[3-amino-6-(5-fluoro-2-hydroxy-phenyl)pyridazin-4-yl]oxy-1-piperidyl]phenyl]piperazin-1-yl]-10-oxo-decanoyl]amino]-3,3-dimethyl-butanoyl]pyrrolidine-2-carboxamide], for which, under setting [1], the Emax (usually the size of the effect at its maximum, as opposed to the concentration needed) came to 7.9%. The DC50 under setting [2] was 0.068 µM.

Take `Cc1ncsc1-c1ccc(CNC(=O)[C@@H]2C[C@@H](O)CN2C(=O)[C@@H](NC(=O)CCCCCC(=O)N2CCN(c3ccc(N4CCCC(Oc5cc(-c6cc(F)ccc6O)nnc5N)C4)cc3)CC2)C(C)(C)C)cc1` (mixture of isomers) [Example 109, rac-(2S,4R)-4-hydroxy-N-[[4-(4-methylthiazol-5-yl)phenyl]methyl]-1-[rac-(2S)-2-[[7-[4-[4-[3-[3-amino-6-(5-fluoro-2-hydroxy-phenyl)pyridazin-4-yl]oxy-1-piperidyl]phenyl]piperazin-1-yl]-7-oxo-heptanoyl]amino]-3,3-dimethyl-butanoyl]pyrrolidine-2-carboxamide]: the Emax under setting [1] turned out to be 23%. In addition, the DC50 under setting [2] was 0.285 µM.

In the case of `Cc1ncsc1-c1ccc(CNC(=O)[C@@H]2C[C@@H](O)CN2C(=O)C(NC(=O)CCCCCCC(=O)N2CCC3(CC2)CCN(c2cc(-c4ccccc4O)nnc2N)CC3)C(C)(C)C)cc1` (stereo in doubt) [Example 6, (2S,4R)-1-[(2R)-2-[[8-[9-[3-amino-6-(2-hydroxyphenyl)pyridazin-4-yl]-3,9-diazaspiro[5.5]undecan-3-yl]-8-oxo-octanoyl]amino]-3,3-dimethyl-butanoyl]-4-hydroxy-N-[[4-(4-methylthiazol-5-yl)phenyl]methyl]pyrrolidine-2-carboxamide], the maximal effect (Emax) under setting [3] is 54%. Besides, under setting [4], the DC50 was 2.91 µM.

`Cc1ncsc1-c1ccc([C@@H](C)NC(=O)[C@H]2C[C@H](O)CN2C(=O)[C@H](NC(=O)CCOCCC(=O)N2CCN(c3ccc(N4CCCC(Oc5cc(-c6ccccc6O)nnc5N)C4)cc3)CC2)C(C)(C)C)cc1` (stereo in doubt) [Example 31, (2R,4S)-1-((2R)-2-(3-(3-(4-(4-(3-((3-amino-6-(2-hydroxyphenyl)pyridazin-4-yl)oxy)piperidin-1-yl)phenyl)piperazin-1-yl)-3-oxopropoxy)propanamido)-3,3-dimethylbutanoyl)-4-hydroxy-N-((R)-1-(4-(4-methylthiazol-5-yl)phenyl)ethyl)pyrrolidine-2-carboxamide] came in with a maximal response (Emax) under setting [3] of 30%. Moreover, under setting [4], the DC50 stood at 1.92 µM.

Regarding `Cc1ncsc1-c1ccc(CNC(=O)[C@@H]2C[C@@H](O)CN2C(=O)[C@@H](NC(=O)CCCCCCCCC(=O)N2CCN(c3cc(-c4ccccc4O)nnc3N)CC2)C(C)(C)C)cc1` [Example 1, (2S,4R)-1-[(2S)-2-[[10-[4-[3-amino-6-(2-hydroxyphenyl)pyridazin-4-yl]piperazin-1-yl]-10-oxo-decanoyl]amino]-3,3-dimethyl-butanoyl]-4-hydroxy-N-[[4-(4-methylthiazol-5-yl)phenyl]methyl]pyrrolidine-2-carboxamide], the Emax under setting [3] stood at 52%. The DC50 under setting [4] amounted to 2.78 µM.

In turn, `Cc1ncsc1-c1ccc(CNC(=O)[C@@H]2C[C@@H](O)CN2C(=O)[C@@H](NC(=O)CCCCCCCC(=O)N2CCN(CCOc3cccc(N4C5CCC4CN(c4cc(-c6ccccc6O)nnc4N)C5)c3)CC2)C(C)(C)C)cc1` [Example 2, (2S,4R)-1-[(2S)-2-[[9-[4-[2-[3-[3-[3-amino-6-(2-hydroxyphenyl)pyridazin-4-yl]-3,8-diazabicyclo[3.2.1]octan-8-yl]phenoxy]ethyl]piperazin-1-yl]-9-oxo-nonanoyl]amino]-3,3-dimethyl-butanoyl]-4-hydroxy-N-[[4-(4-methylthiazol-5-yl)phenyl]methyl]pyrrolidine-2-carboxamide] yielded an Emax under setting [3] of 38%. Also, under setting [4], the DC50 stood at 0.478 µM.

In turn, `Cc1ncsc1-c1ccc(CNC(=O)[C@@H]2C[C@@H](O)CN2C(=O)[C@@H](NC(=O)CCCCCCCC(=O)N2CCN(Cc3cccc(N4C5CCC4CN(c4cc(-c6ccccc6O)nnc4N)C5)c3)CC2)C(C)(C)C)cc1` [Example 3, (2S,4R)-1-[(2S)-2-[[9-[4-[[3-[3-[3-amino-6-(2-hydroxyphenyl)pyridazin-4-yl]-3,8-diazabicyclo[3.2.1]octan-8-yl]phenyl]methyl]piperazin-1-yl]-9-oxo-nonanoyl]amino]-3,3-dimethyl-butanoyl]-4-hydroxy-N-[[4-(4-methylthiazol-5-yl)phenyl]methyl]pyrrolidine-2-carboxamide] came in with a maximum response (Emax) under setting [3] of 51%. In addition, the DC50 under setting [4] amounted to 0.479 µM.

In the case of `Cc1ncsc1-c1ccc(CNC(=O)[C@@H]2C[C@@H](O)CN2C(=O)[C@@H](NC(=O)CCCCCCCCC(=O)N2CCN(c3cc(-c4ccccc4O)nnc3N)CC2C)C(C)(C)C)cc1` (stereo partly drawn) [Example 4, (2S,4R)-1-[(2S)-2-[[10-[4-[3-amino-6-(2-hydroxyphenyl)pyridazin-4-yl]-2-methyl-piperazin-1-yl]-10-oxo-decanoyl]amino]-3,3-dimethyl-butanoyl]-4-hydroxy-N-[[4-(4-methylthiazol-5-yl)phenyl]methyl]pyrrolidine-2-carboxamide], the Emax under setting [3] stood at 36%. Further, the DC50 under setting [4] was 2.93 µM.

For `Cc1ncsc1-c1ccc(CNC(=O)[C@@H]2C[C@@H](O)CN2C(=O)[C@@H](NC(=O)CCCCCCCCC(=O)N2C3CCC2CN(c2cc(-c4ccccc4O)nnc2N)C3)C(C)(C)C)cc1` [Example 5, (2S,4R)-1-[(2S)-2-[[10-[3-[3-amino-6-(2-hydroxyphenyl)pyridazin-4-yl]-3,8-diazabicyclo[3.2.1]octan-8-yl]-10-oxo-decanoyl]amino]-3,3-dimethyl-butanoyl]-4-hydroxy-N-[[4-(4-methylthiazol-5-yl)phenyl]methyl]pyrrolidine-2-carboxamide], the Emax under setting [3] was 31%. Further, the DC50 under setting [4] is 2.51 µM.

On to `Cc1ncsc1-c1ccc(CNC(=O)[C@@H]2C[C@@H](O)CN2C(=O)[C@@H](NC(=O)CCCCCCCCCC(=O)N2CCN(Cc3cccc(N4C5CCC4CN(c4cc(-c6ccccc6O)nnc4N)C5)c3)CC2)C(C)(C)C)cc1` [Example 7, (2S,4R)-1-[(2S)-2-[[11-[4-[[3-[3-[3-amino-6-(2-hydroxyphenyl)pyridazin-4-yl]-3,8-diazabicyclo[3.2.1]octan-8-yl]phenyl]methyl]piperazin-1-yl]-11-oxo-undecanoyl]amino]-3,3-dimethyl-butanoyl]-4-hydroxy-N-[[4-(4-methylthiazol-5-yl)phenyl]methyl]pyrrolidine-2-carboxamide], for which the Emax under setting [3] was found to be 39%. Besides, the DC50 under setting [4] stood at 0.357 µM.

Consider `Cc1ncsc1-c1ccc(CNC(=O)[C@@H]2C[C@@H](O)CN2C(=O)[C@H](NC(=O)CCCCCCC(=O)N2CCN(CCOc3cccc(N4C5CCC4CN(c4cc(-c6ccccc6O)nnc4N)C5)c3)CC2)C(C)(C)C)cc1` [Example 8, (2S,4R)-1-[(2R)-2-[[8-[4-[2-[3-[3-[3-amino-6-(2-hydroxyphenyl)pyridazin-4-yl]-3,8-diazabicyclo[3.2.1]octan-8-yl]phenoxy]ethyl]piperazin-1-yl]-8-oxo-octanoyl]amino]-3,3-dimethyl-butanoyl]-4-hydroxy-N-[[4-(4-methylthiazol-5-yl)phenyl]methyl]pyrrolidine-2-carboxamide], for which, under setting [3], the Emax came out at 48%. Moreover, the DC50 under setting [4] was 0.61 µM.

`Cc1ncsc1-c1ccc(CNC(=O)[C@@H]2C[C@@H](O)CN2C(=O)[C@H](NC(=O)CCCCCC(=O)N2CCN(CCOc3cccc(N4C5CCC4CN(c4cc(-c6ccccc6O)nnc4N)C5)c3)CC2)C(C)(C)C)cc1` [Example 9, (2S,4R)-1-[(2R)-2-[[7-[4-[2-[3-[3-[3-amino-6-(2-hydroxyphenyl)pyridazin-4-yl]-3,8-diazabicyclo[3.2.1]octan-8-yl]phenoxy]ethyl]piperazin-1-yl]-7-oxo-heptanoyl]amino]-3,3-dimethyl-butanoyl]-4-hydroxy-N-[[4-(4-methylthiazol-5-yl)phenyl]methyl]pyrrolidine-2-carboxamide] yielded an Emax under setting [3] of 58%. Besides, the DC50 under setting [4] was 0.733 µM.

As for `Cc1ncsc1-c1ccc(CNC(=O)[C@@H]2C[C@@H](O)CN2C(=O)[C@@H](NC(=O)CCCCCCCCC(=O)N2CCN(CCOc3cccc(N4C5CCC4CN(c4cc(-c6ccccc6O)nnc4N)C5)c3)CC2)C(C)(C)C)cc1` [Example 10, (2S,4R)-1-[(2S)-2-[[10-[4-[2-[3-[3-[3-amino-6-(2-hydroxyphenyl)pyridazin-4-yl]-3,8-diazabicyclo[3.2.1]octan-8-yl]phenoxy]ethyl]piperazin-1-yl]-10-oxo-decanoyl]amino]-3,3-dimethyl-butanoyl]-4-hydroxy-N-[[4-(4-methylthiazol-5-yl)phenyl]methyl]pyrrolidine-2-carboxamide], the Emax under setting [3] was 19%. Besides, the DC50 under setting [4] was 0.286 µM.

Compound `Cc1ncsc1-c1ccc(CNC(=O)[C@@H]2C[C@@H](O)CN2C(=O)[C@@H](NC(=O)CCCCCCCCCC(=O)N2CCN(CCOc3cccc(N4C5CCC4CN(c4cc(-c6ccccc6O)nnc4N)C5)c3)CC2)C(C)(C)C)cc1` [Example 11, (2S,4R)-1-[(2S)-2-[[11-[4-[2-[3-[3-[3-amino-6-(2-hydroxyphenyl)pyridazin-4-yl]-3,8-diazabicyclo[3.2.1]octan-8-yl]phenoxy]ethyl]piperazin-1-yl]-11-oxo-undecanoyl]amino]-3,3-dimethyl-butanoyl]-4-hydroxy-N-[[4-(4-methylthiazol-5-yl)phenyl]methyl]pyrrolidine-2-carboxamide] returned an Emax under setting [3] of 20%. The DC50 under setting [4] amounted to 0.104 µM.
